Experimental data published in ChEMBL document CHEMBL1132817 (Bioorg Med Chem Lett, 2000).

Legend:
[1] = system: HL-60; test: The compound was tested for its inhibitory activity against HL-60 human leukemia cell line; assay type: functional, cell-based
[2] = system: SBC-5; test: The compound was tested for its inhibitory activity against SBC-5 human lung cancer cell line; assay type: functional, cell-based
[3] = biological target: T1, M-phase inducer phosphatase 2 (Homo sapiens, UniProt P30305); test: The compound was tested for its inhibitory activity against Cell division cycle 25B
T1 sequence (P30305 whole entry): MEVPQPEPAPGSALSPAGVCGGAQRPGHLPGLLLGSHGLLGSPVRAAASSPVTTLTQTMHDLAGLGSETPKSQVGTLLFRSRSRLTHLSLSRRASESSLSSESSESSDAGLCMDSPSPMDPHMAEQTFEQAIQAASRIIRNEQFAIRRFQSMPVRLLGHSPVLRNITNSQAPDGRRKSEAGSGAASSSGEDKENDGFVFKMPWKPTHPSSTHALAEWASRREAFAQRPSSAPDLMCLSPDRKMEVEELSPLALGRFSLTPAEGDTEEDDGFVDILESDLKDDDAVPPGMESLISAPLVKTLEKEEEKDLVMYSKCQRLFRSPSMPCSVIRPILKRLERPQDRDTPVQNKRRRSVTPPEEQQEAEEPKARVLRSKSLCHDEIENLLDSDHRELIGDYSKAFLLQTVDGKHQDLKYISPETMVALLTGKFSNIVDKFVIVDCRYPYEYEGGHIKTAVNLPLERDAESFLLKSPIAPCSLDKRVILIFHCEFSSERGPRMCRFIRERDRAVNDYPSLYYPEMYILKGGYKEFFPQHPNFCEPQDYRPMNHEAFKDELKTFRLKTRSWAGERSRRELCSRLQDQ

[4] = biological target: T2, M-phase inducer phosphatase 1 (Homo sapiens, UniProt P30304); test: The compound was tested for its inhibitory activity against Cell division cycle 25A
T2 sequence (P30304 whole entry): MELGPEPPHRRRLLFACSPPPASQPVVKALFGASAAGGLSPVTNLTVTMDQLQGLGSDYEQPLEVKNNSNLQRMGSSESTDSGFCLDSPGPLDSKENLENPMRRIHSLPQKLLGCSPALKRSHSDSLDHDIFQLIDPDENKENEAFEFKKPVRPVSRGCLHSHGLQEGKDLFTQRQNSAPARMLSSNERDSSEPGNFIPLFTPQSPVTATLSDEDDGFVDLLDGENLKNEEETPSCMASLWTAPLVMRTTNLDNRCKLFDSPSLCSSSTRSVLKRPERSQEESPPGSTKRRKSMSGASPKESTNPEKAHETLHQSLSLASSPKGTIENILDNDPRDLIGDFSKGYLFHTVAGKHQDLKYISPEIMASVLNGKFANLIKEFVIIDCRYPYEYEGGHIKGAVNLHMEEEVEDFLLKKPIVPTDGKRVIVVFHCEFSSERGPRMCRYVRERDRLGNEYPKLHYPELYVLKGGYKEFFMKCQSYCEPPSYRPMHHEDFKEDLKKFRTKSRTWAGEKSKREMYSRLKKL

IC50 [1]	IC50 [2]	IC50 [3]	IC50 [4]	Structure (SMILES)
1 µM	1.3 µM	18 µM	–	C=C(C)CCC[C@]1(C)CCC[C@@H]2C1=CC[C@@H](C)[C@]2(C)C[C@H](O)C1=CC(=O)OC1O (some centres undefined)
–	12 µM	> 300 µM	> 300 µM	CC1(CC(O)C2=CC(=O)OC2O)CCCCC1 (centres undefined)
–	4.4 µM	27 µM	15 µM	C=C(C)CCC[C@]1(C)CCC[C@@H]2C1=CC[C@@H](C)[C@@H]2C[C@H](O)C1=CC(=O)OC1O (some centres undefined)
–	16 µM	19 µM	–	C=C(C)CCC[C@@]1(C)CCC[C@H]2C1=CC[C@H](C)[C@]2(C)C[C@H](O)C1=CC(=O)O[C@@H]1O (stereo in doubt)
7.1 µM	5.4 µM	87 µM	–	C=C(C)CCC[C@]1(C)CCC[C@@H]2C1=CC[C@@H](C)[C@@]2(C)C[C@@H](O)C1=CC(=O)O[C@H]1O [DYSIDIOLIDE]
